The record followed here is paper PMC3920478, “Small molecule-mediated refolding and activation of myosin motor function” (eLife, 2014).

The pKd is the Kd on a negative log10 scale, so that one unit is a factor of ten.

pKd: −log10 of the molar value. Values joined by “and” are separate entries in the source; they are usually repeats but may differ in a detail not shown here. Equal entries are not always repeated. “Also recorded” adds a separate entry of the source.

One experiment deals with T1, Dd myosin-2 motor domain (Dictyostelium discoideum, UniProt P08799).
T1 sequence (P08799 1-761 limits assumed): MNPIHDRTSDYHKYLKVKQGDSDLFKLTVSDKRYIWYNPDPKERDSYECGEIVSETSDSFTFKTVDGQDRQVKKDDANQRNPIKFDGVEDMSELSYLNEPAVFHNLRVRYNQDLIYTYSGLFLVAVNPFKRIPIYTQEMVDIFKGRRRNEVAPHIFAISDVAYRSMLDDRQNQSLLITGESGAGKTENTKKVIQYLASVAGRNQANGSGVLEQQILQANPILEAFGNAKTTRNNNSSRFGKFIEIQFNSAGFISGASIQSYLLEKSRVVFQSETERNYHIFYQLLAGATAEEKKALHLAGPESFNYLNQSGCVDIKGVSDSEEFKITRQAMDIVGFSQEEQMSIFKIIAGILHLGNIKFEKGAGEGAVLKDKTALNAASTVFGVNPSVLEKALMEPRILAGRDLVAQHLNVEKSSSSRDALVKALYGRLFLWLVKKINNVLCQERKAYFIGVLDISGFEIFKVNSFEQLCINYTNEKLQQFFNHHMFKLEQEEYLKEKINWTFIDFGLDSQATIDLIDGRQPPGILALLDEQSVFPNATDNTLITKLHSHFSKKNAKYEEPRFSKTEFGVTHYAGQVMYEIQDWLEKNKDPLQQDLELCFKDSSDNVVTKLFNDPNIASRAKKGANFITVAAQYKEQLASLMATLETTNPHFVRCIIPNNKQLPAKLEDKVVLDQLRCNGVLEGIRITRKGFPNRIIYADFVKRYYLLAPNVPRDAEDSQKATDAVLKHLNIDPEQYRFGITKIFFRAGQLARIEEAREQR
The experiment is described as follows: Microscale thermophoresis direct binding. The conditions noted are these: 100 nM, read-out: Binding affinity (MST), KD. An excerpt: Proteolytic fragments were further purified by actin-coprecipitation.

Experiment [1] has as its system neonatal rat cardiomyocytes (NRCM). The experiment is described as follows: Neonatal rat cardiomyocytes: cell size, MHC and ANP expression at 37°C or 42°C. The class given is cell-based. The conditions noted are these: 10 µM, 24 hr. Here is the method: Cell culture media, fetal bovine serum (FBS), and horse serum (HS) were purchased from Biochrome (Berlin, Germany); all other chemicals were from Sigma-Aldrich (St Louis, MO). Isolation of neonatal rat cardiomyocytes (NRCM) was performed by enzymatic digestion of neonatal rat hearts as described previously ([Hilfiker-Kleiner et al., 2004]). NRCM were cultured in plating medium containing 5% FBS and 10% HS for 24 hr followed by serum-starvation for 48 hr. NRCM were cultured in serum-free medium containing either EMD (10 µM) or the corresponding volume of the solvent DMSO (1 µl/ ml) for additional 24 hr at 37°C or 42°C with 5% CO2.
For indirect immunofluorescence NRCM were fixed with 95% ethanol. Monoclonal antibodies against sarcomeric α-actinin (1:50; Sigma-Aldrich) or sarcomeric Myosin heavy chain (1:50; Santa Cruz Biotechnology, Dallas, TX) were used. Fluor-488 goat anti-mouse IgG (1:250; Jackson ImmunoResearch, West Grove, PA) or Alexa Fluor 639 goat anti-rabbit (1:250; Jackson ImmunoResearch) was employed as secondary antibody. Immunofluorescence was detected by the use of the AxioVison Rel 4.1 package (Carl Zeiss GmbH).
Realtime measurement of PCR amplification was performed using the Stratagene MX4000 multiplex QPCR System with the SYBR green dye method (Brilliant SYBR Green Mastermix-Kit, Stratagene, La Jolla, CA) as described ([Hilfiker-Kleiner et al., 2010]; [Hoch et al., 2011]). Total RNA was extracted from NRCM using Trizol reagent according to the manufactures protocol (Invitrogen, Carlsbad, CA). Reverse transcriptase (RT)-PCR was performed of ANP and b2m using 2 μg of total RNA. The primer sequences and PCR conditions are described in Table 3. PCR products were size-fractionated by 2% agarose gel electrophoresis.
Protein expression in NRCM was determined by standard immunoblotting techniques under denaturing conditions, as described previously ([Hilfiker-Kleiner et al., 2004]). A monoclonal primary antibody against sarcomeric MHC (1:1.000; Abcam, Cambridge, UK) was used and signal detection was achieved by the usage of a horseradish peroxydase-conjugated secondary antibody (GE) and ECL-detection. PonceauS staining was carried out and used as a loading control.

In a further experiment the target is T2, Dd myosin-2 ΔSH3 (Dictyostelium discoideum, UniProt P08799, DEL33-79).
T2 construct: Dd myosin-2 ΔSH3, a recombinant motor domain construct that lacks this subdomain; made in house
The experiment is described as follows: In vitro motility assay (actin filament sliding). The class given is biochemical. Conditions: 100 µM EMD 57033. An excerpt: Initial blind docking to homology models of the β-cardiac myosin motor domain in the post-rigor state indicated preferred binding of the drug to a region near the small N-terminal, SH3-like βbarrel subdomain. Important contacts are predicted to involve the SH3-like subdomain (residues 34–72) and two α-helices (residues 20–28 and 98–111). […] The sets of binding poses differ mainly in the orientation of the dimethylated catechol group, occupying either of the two possible branches of the Y, while the thiadiazinone moiety appears little affected and resides in the root of the Y shaped cavity (Figure 2A,B). Potential residues involved in the binding of the thiadiazinone and tetrahydroquinoline moieties of the compound include Arg23, Asp85, Lys86, Asp107, Arg108, and Ser111. The dimethylated catechol moiety is mainly bound by residues Lys34, Lys48, and Gln79, and thus, interacts with the SH3-like β-barrel.
Actin-sliding motility was performed at 20°C using an Olympus IX81 (Olympus, Hamburg, Germany) inverted fluorescence microscope as described previously ([Fujita-Becker et al., 2005]). Average sliding velocities were determined from the Gaussian distribution of automatically tracked actin filaments using DiaTrack 3.01 (Semasopht, Chavannes, Switzerland) and Origin 7.0 (OriginLab Corporation, Northampton, MA). Errors indicate standard deviations.

The target in another experiment is β-cardiac myosin (Sus scrofa, UniProt P79293). The experiment is described as follows: Steady-state basal and actin-activated Mg2+-ATPase (NADH-coupled assay). The class given is biochemical, Porcine.
Experiment [2] addresses T3, Dd myosin-2 ΔSH3 (lacks residues 33–79) (Dictyostelium discoideum, UniProt P08799, DEL33-79).
T3 construct: Dd myosin-2 ΔSH3, a recombinant motor domain construct that lacks this subdomain; made in house
The experiment is described as follows: Direct binding to truncated construct. Conditions: construct lacks SH3-like β-barrel.

Chain of β-cardiac myosin (P79293 1-810 limits assumed): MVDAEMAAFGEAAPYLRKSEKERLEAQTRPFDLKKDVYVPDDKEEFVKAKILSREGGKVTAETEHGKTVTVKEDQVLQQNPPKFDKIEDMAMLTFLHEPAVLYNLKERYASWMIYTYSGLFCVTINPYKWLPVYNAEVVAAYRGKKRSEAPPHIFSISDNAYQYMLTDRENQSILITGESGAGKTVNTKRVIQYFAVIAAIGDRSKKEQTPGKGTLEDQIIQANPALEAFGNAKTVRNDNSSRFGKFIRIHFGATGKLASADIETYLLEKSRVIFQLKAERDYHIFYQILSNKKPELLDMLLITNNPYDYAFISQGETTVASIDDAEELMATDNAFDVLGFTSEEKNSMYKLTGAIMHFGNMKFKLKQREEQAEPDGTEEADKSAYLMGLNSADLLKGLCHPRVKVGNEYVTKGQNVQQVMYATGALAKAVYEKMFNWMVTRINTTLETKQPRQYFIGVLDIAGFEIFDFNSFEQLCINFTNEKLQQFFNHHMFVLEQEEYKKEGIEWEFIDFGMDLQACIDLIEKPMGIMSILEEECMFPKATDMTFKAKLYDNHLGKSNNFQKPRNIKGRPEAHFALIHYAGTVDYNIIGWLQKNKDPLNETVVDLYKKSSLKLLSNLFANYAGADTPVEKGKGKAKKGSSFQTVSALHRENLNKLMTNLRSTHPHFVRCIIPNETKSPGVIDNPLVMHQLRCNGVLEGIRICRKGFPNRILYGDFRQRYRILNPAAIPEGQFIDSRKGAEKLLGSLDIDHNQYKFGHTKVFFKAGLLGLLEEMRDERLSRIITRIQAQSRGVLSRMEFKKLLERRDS
T3 sequence (P08799 other isoform, or with tags, fused parts or gaps DEL33-79): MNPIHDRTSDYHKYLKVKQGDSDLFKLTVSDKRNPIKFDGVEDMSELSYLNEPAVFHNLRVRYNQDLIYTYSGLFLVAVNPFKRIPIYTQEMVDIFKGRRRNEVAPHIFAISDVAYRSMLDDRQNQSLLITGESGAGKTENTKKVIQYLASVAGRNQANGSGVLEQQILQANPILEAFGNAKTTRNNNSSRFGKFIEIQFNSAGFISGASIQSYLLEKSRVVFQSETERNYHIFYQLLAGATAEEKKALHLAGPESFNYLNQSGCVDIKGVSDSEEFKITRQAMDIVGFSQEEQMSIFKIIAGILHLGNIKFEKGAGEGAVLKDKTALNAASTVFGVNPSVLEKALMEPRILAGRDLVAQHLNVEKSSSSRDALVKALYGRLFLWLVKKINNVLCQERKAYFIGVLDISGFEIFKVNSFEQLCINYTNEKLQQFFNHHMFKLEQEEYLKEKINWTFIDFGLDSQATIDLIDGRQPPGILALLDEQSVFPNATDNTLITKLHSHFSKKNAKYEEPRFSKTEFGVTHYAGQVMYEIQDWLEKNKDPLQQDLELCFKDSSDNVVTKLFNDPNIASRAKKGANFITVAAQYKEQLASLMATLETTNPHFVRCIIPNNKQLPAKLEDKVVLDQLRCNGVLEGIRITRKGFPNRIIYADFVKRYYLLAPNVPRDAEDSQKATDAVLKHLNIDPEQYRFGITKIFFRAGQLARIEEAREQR
T2 sequence (P08799 other isoform, or with tags, fused parts or gaps DEL33-79): as above

Take `COc1ccc(C(=O)N2CCCc3cc(C4=NNC(=O)SC4C)ccc32)cc1OC` (centres unmarked) [EMD 57033]: on Dd myosin-2 motor domain, the negative-log Kd (pKd) was 4.64. For the same molecule, the “ANP mRNA expression” value in experiment [1] (37°C) was “not significantly changed; also recorded: does not affect expression of ANP mRNA”. In experiment [1] (37°C or 42°C), the “Total cardiac MHC protein content” value is “without significant changes in total cardiac MHC protein content; also recorded: does not significantly alter MHC protein levels”. Also, in experiment [1] (37°C, vs DMSO), the “β-cardiac MHC mRNA expression” value is “reduction in β-cardiac MHC transcripts; also recorded: significantly reduces”. Also, in experiment [1] (42°C), the “ANP mRNA expression induced by hyperthermic stress” value was “completely suppressed; also recorded: fully suppressed” and the “β-cardiac MHC mRNA downregulation” value is “significantly more pronounced”. The “α-cardiac MHC mRNA expression” value in experiment [1] (vs DMSO) is given as “without significant changes; also recorded: does not alter α-cardiac MHC mRNA expression”. Moreover, the “Actin filament sliding velocity enhancement” value at Dd myosin-2 ΔSH3 is reported as “no actin filament sliding velocity enhancement was observed”. For the same molecule, at β-cardiac myosin (EMD 57033 vs control), the “Ea ∼Change (−fold), reduction” value was 1.5 fold. Further, the “Ea (Arrhenius activation energy of ATP turnover)” value at β-cardiac myosin (in presence of EMD 57033, 25–45°C) was 7.41 kcal/mol and 7.41 ± 0.72 kcal/mol. Besides, the Direct binding result in experiment [2] was “neither binding”.
